This test has as its system mice. Briefly: SmartCube in vivo neuropharmacological behavioral assay. The following applies: for minimal effective dose: Mus musculus, ip, dose having 50% or more total activity in SmartCube, i.p., read-out: MED (minimal effective dose); for AD: antidepressant, percent probability / AG: analgesic, percent probability / AP: antipsychotic, percent probability / AX: anxiolytic, percent probability / CE: cognitive enhancer, percent probability / HA: hallucinogenic, percent probability / MS: mood stabilizer, percent probability / PS, percent probability / SD: sedative hypnotic, percent probability / SE: side effects, percent probability / UN: uncharacterized CNS activity, percent probability / XG: anxiogenic, percent probability: SmartCube, i.p. 15 min before test, at the MED. The method, boiled down: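 Mice dosed i.p. with compound in Pharmasolve (NMP) 15 min before automated video capture of behavior; doses e.g. 0.3–30 mg/kg. Behavioral signature compared with reference-drug classes, giving per-class probability (0–100, 0 = LOQ); MED = lowest dose with ≥50% total activity.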

Consider ten compounds from patent US20230109801A1 (Blue Oak Pharmaceuticals, Inc., priority 2020, published 2023).

Each structure is given as a SMILES string. Counter-ions that a name gives are not always drawn. Bounds are passed on as bounds.

As for `C1=CC2c3ccccc3C1N2C1CC1` [Compound 56, 11-Cyclopropyl-11-azatricyclo[6.2.1.0^2,7]undeca-2,4,6,9-tetraene hydrochloride], the minimal effective dose lay in the range of 10 to 30 mg/kg; the “AD: antidepressant, percent probability” value is given as “++ (5% ≤ X < 25%)”; the “AG: analgesic, percent probability” value was “+ (LOQ ≤ X < 5%)”; the “AP: antipsychotic, percent probability” value is recorded as “++ (5% ≤ X < 25%)”. Also, the “AX: anxiolytic, percent probability” value is “++ (5% ≤ X < 25%)”; the “CE: cognitive enhancer, percent probability” value is listed as “++ (5% ≤ X < 25%)”; the “HA: hallucinogenic, percent probability” value is “+ (LOQ ≤ X < 5%)”; the “MS: mood stabilizer, percent probability” value is “+ (LOQ ≤ X < 5%)”. For the same compound, the “PS, percent probability” value is “+ (LOQ ≤ X < 5%)”; the “SD: sedative hypnotic, percent probability” value (“SD … percent probability” below) is recorded as “+ (LOQ ≤ X < 5%)”; the “SE: side effects, percent probability” value is given as “+ (LOQ ≤ X < 5%)”; the “UN: uncharacterized CNS activity, percent probability” value (from here on “UN … percent probability”) is “+++ (25% ≤ X < 50%)”. Besides, the “XG: anxiogenic, percent probability” value is “+ (LOQ ≤ X < 5%)”.

As for `CC(C)N1C2C=CC1c1c(Cl)cccc12` (stereo not shown) [Compound 12, 3-Chloro-11-(propan-2-yl)-11-azatricyclo[6.2.1.0^2,7]undeca-2,4,6,9-tetraene hydrochloride], the minimal effective dose is greater than 30 mg/kg; the “AD: antidepressant, percent probability” value was “+ (LOQ ≤ X < 5%)”; the “AG: analgesic, percent probability” value is “+ (LOQ ≤ X < 5%)”; the “AP: antipsychotic, percent probability” value is “+ (LOQ ≤ X < 5%)”. Also, the “AX: anxiolytic, percent probability” value is recorded as “+++ (25% ≤ X < 50%)”; the “CE: cognitive enhancer, percent probability” value is recorded as “+ (LOQ ≤ X < 5%)”; the “HA: hallucinogenic, percent probability” value is “+ (LOQ ≤ X < 5%)”; the “MS: mood stabilizer, percent probability” value is listed as “+ (LOQ ≤ X < 5%)”. The “PS, percent probability” value is given as “++ (5% ≤ X < 25%)”; the “SD … percent probability” value was “+ (LOQ ≤ X < 5%)”; the “SE: side effects, percent probability” value is listed as “+ (LOQ ≤ X < 5%)”; the “UN … percent probability” value was “+ (LOQ ≤ X < 5%)”. For the same compound, the “XG: anxiogenic, percent probability” value is “+ (LOQ ≤ X < 5%)”.

In the case of `CC1C(C)C2c3ccccc3C1N2C(C)C` (stereo not shown) [Compound 49, 9,10-Dimethyl-11-(propan-2-yl)-11-azatricyclo[6.2.1.0^2,7]undeca-2,4,6-triene hydrochloride], the minimal effective dose was 10 to 30 mg/kg.

Turning to `c1ccc2c(c1)C1CCC2N1` [Compound 41, hydrochloride], the minimal effective dose fell in the range of 10 to 30 mg/kg; the “AD: antidepressant, percent probability” value is on record as “+ (LOQ ≤ X < 5%)”; the “AG: analgesic, percent probability” value is “++ (5% ≤ X < 25%)”; the “AP: antipsychotic, percent probability” value is “+ (LOQ ≤ X < 5%)”. Moreover, the “AX: anxiolytic, percent probability” value is listed as “++ (5% ≤ X < 25%)”; the “CE: cognitive enhancer, percent probability” value is recorded as “++ (5% ≤ X < 25%)”; the “HA: hallucinogenic, percent probability” value was “+ (LOQ ≤ X < 5%)”; the “MS: mood stabilizer, percent probability” value is on record as “+ (LOQ ≤ X < 5%)”. Besides, the “PS, percent probability” value is listed as “+ (LOQ ≤ X < 5%)”; the “SD … percent probability” value is on record as “+ (LOQ ≤ X < 5%)”; the “SE: side effects, percent probability” value was “+ (LOQ ≤ X < 5%)”; the “UN … percent probability” value is listed as “++ (5% ≤ X < 25%)”. In addition, the “XG: anxiogenic, percent probability” value is “+ (LOQ ≤ X < 5%)”.

Regarding `Fc1cc2c(cc1F)C1CCC2N1` [Compound 7, 4,5-Difluoro-11-azatricyclo[6.2.1.0^2,7]undeca-2,4,6-triene hydrochloride], the minimal effective dose was greater than 30 mg/kg; the “AD: antidepressant, percent probability” value was “++ (5% ≤ X < 25%)”; the “AG: analgesic, percent probability” value is “++ (5% ≤ X < 25%)”; the “AP: antipsychotic, percent probability” value is given as “+ (LOQ ≤ X < 5%)”. Also, the “AX: anxiolytic, percent probability” value is reported as “+++ (25% ≤ X < 50%)”; the “CE: cognitive enhancer, percent probability” value was “+ (LOQ ≤ X < 5%)”; the “HA: hallucinogenic, percent probability” value is given as “+ (LOQ ≤ X < 5%)”; the “MS: mood stabilizer, percent probability” value is listed as “+ (LOQ ≤ X < 5%)”. In addition, the “PS, percent probability” value was “+ (LOQ ≤ X < 5%)”; the “SD … percent probability” value is reported as “+ (LOQ ≤ X < 5%)”; the “SE: side effects, percent probability” value is on record as “++ (5% ≤ X < 25%)”; the “UN … percent probability” value was “+ (LOQ ≤ X < 5%)”. The “XG: anxiogenic, percent probability” value was “+ (LOQ ≤ X < 5%)”.

As for `CC(C)N1C2CCC1c1ccccc12` [Compound 42, 11-(Propan-2-yl)-11-azatricyclo[6.2.1.0^2,7]undeca-2,4,6-triene hydrochloride], the minimal effective dose lay in the range of 10 to 30 mg/kg; the “AD: antidepressant, percent probability” value is “++ (5% ≤ X < 25%)”; the “AG: analgesic, percent probability” value was “++ (5% ≤ X < 25%)”; the “AP: antipsychotic, percent probability” value is recorded as “+ (LOQ ≤ X < 5%)”. Besides, the “AX: anxiolytic, percent probability” value is “+ (LOQ ≤ X < 5%)”; the “CE: cognitive enhancer, percent probability” value is listed as “+ (LOQ ≤ X < 5%)”; the “HA: hallucinogenic, percent probability” value is recorded as “++ (5% ≤ X < 25%)”; the “MS: mood stabilizer, percent probability” value is recorded as “+ (LOQ ≤ X < 5%)”. Besides, the “PS, percent probability” value is listed as “+++ (25% ≤ X < 50%)”; the “SD … percent probability” value is listed as “+ (LOQ ≤ X < 5%)”; the “SE: side effects, percent probability” value is reported as “+ (LOQ ≤ X < 5%)”; the “UN … percent probability” value is “++ (5% ≤ X < 25%)”. Further, the “XG: anxiogenic, percent probability” value was “+ (LOQ ≤ X < 5%)”.

On to `CC1=C(C)C2NC1c1ccccc12` [Compound 59, 9,10-Dimethyl-11-azatricyclo[6.2.1.0^2,7]undeca-2,4,6,9-tetraene hydrochloride], for which the minimal effective dose lay within 10 to 30 mg/kg; the “AD: antidepressant, percent probability” value is “++++ (50% ≤ X <1 00%)”; the “AG: analgesic, percent probability” value is “+ (LOQ ≤ X < 5%)”; the “AP: antipsychotic, percent probability” value was “+ (LOQ ≤ X < 5%)”. The “AX: anxiolytic, percent probability” value is “++ (5% ≤ X < 25%)”; the “CE: cognitive enhancer, percent probability” value is reported as “++ (5% ≤ X < 25%)”; the “HA: hallucinogenic, percent probability” value is on record as “++ (5% ≤ X < 25%)”; the “MS: mood stabilizer, percent probability” value was “+ (LOQ ≤ X < 5%)”. Moreover, the “PS, percent probability” value is “+ (LOQ ≤ X < 5%)”; the “SD … percent probability” value is given as “+ (LOQ ≤ X < 5%)”; the “SE: side effects, percent probability” value is given as “+ (LOQ ≤ X < 5%)”; the “UN … percent probability” value is reported as “+ (LOQ ≤ X < 5%)”. The “XG: anxiogenic, percent probability” value is listed as “+ (LOQ ≤ X < 5%)”.

Regarding `Clc1cccc2c1C1CCC2N1` (stereo not shown) [Compound 13, 3-Chloro-11-azatricyclo[6.2.1.0^2,7]undeca-2,4,6-triene hydrochloride], the minimal effective dose is greater than 30 mg/kg; the “AD: antidepressant, percent probability” value is “+ (LOQ ≤ X < 5%)”; the “AG: analgesic, percent probability” value is “+ (LOQ ≤ X < 5%)”; the “AP: antipsychotic, percent probability” value is “+ (LOQ ≤ X < 5%)”. Further, the “AX: anxiolytic, percent probability” value is “++ (5% ≤ X < 25%)”; the “CE: cognitive enhancer, percent probability” value is listed as “++ (5% ≤ X < 25%)”; the “HA: hallucinogenic, percent probability” value was “+ (LOQ ≤ X < 5%)”; the “MS: mood stabilizer, percent probability” value is reported as “+ (LOQ ≤ X < 5%)”. The “PS, percent probability” value is listed as “+ (LOQ ≤ X < 5%)”; the “SD … percent probability” value is on record as “+ (LOQ ≤ X < 5%)”; the “SE: side effects, percent probability” value is listed as “+ (LOQ ≤ X < 5%)”; the “UN … percent probability” value is “+++ (25% ≤ X < 50%)”. For the same compound, the “XG: anxiogenic, percent probability” value is given as “+ (LOQ ≤ X < 5%)”.

`COc1cccc2c1C1C=CC2N1` (stereo not shown) [Compound 16, 3-Methoxy-11-azatricyclo[6.2.1.0^2,7]undeca-2,4,6,9-tetraene hydrochloride]: the minimal effective dose is greater than 30 mg/kg; the “AD: antidepressant, percent probability” value is “+ (LOQ ≤ X < 5%)”; the “AG: analgesic, percent probability” value was “+ (LOQ ≤ X < 5%)”; the “AP: antipsychotic, percent probability” value is listed as “+ (LOQ ≤ X < 5%)”. For the same compound, the “AX: anxiolytic, percent probability” value was “++ (5% ≤ X < 25%)”; the “CE: cognitive enhancer, percent probability” value is “+ (LOQ ≤ X < 5%)”; the “HA: hallucinogenic, percent probability” value was “+ (LOQ ≤ X < 5%)”; the “MS: mood stabilizer, percent probability” value was “+ (LOQ ≤ X < 5%)”. Moreover, the “PS, percent probability” value is listed as “+ (LOQ ≤ X < 5%)”; the “SD … percent probability” value was “+ (LOQ ≤ X < 5%)”; the “SE: side effects, percent probability” value is given as “+ (LOQ ≤ X < 5%)”; the “UN … percent probability” value was “++ (5% ≤ X < 25%)”. For the same compound, the “XG: anxiogenic, percent probability” value was “+ (LOQ ≤ X < 5%)”.

On to `CC(C)N1C2CCC1c1cc(F)c(F)cc12` [Compound 8, 4,5-difluoro-11-(propan-2-yl)-11-azatricyclo[6.2.1.0^2,7]undeca-2(7),3,5-triene hydrochloride], for which the minimal effective dose fell in the range of 10 to 30 mg/kg; the “AD: antidepressant, percent probability” value is recorded as “+ (LOQ ≤ X < 5%)”; the “AG: analgesic, percent probability” value is “++ (5% ≤ X < 25%)”; the “AP: antipsychotic, percent probability” value is reported as “+ (LOQ ≤ X < 5%)”. Also, the “AX: anxiolytic, percent probability” value is recorded as “++ (5% ≤ X < 25%)”; the “CE: cognitive enhancer, percent probability” value is reported as “+ (LOQ ≤ X < 5%)”; the “HA: hallucinogenic, percent probability” value is reported as “+ (LOQ ≤ X < 5%)”; the “MS: mood stabilizer, percent probability” value was “+ (LOQ ≤ X < 5%)”. Further, the “PS, percent probability” value is recorded as “+ (LOQ ≤ X < 5%)”; the “SD … percent probability” value was “++ (5% ≤ X < 25%)”; the “SE: side effects, percent probability” value is on record as “++++ (50% ≤ X <1 00%)”; the “UN … percent probability” value is “+ (LOQ ≤ X < 5%)”. The “XG: anxiogenic, percent probability” value was “+ (LOQ ≤ X < 5%)”.

As usually defined, the minimal effective dose is the lowest level tested that produced the effect sought.
